According to PMC8069510, “Synthesis and Evaluation of Novel 2,2-Dimethylthiochromanones as Anti-Leishmanial Agents” (Molecules, 2021):
Read-outs that look alike come from different tables or passages of the source.

Key:
[1] = tested on: L. infantum axenic amastigotes; experiment: Antileishmanial activity on L. infantum axenic amastigotes (luciferase luminescence); format: cell-based, Leishmania infantum; settings: for S.I. (Selectivity Index) = CC50/IC50: CC50 J774A.1 / IC50 L. infantum axenic amastigotes; for IC50 / activity against L. infantum (in words): axenic amastigotes; for IC50: 48 h incubation, mean (standard deviation), three independent experiments
Protocol: (§1) Selected compounds were evaluated for their leishmanicidal ability as previously described, through examining their activity on L. infantum axenic amastigotes, and the results are expressed in Table 2 as IC50 values. In parallel, evaluation of the cytotoxicity of test compounds was performed by MTT assay using the J774A.1 macrophage cell line. Results are presented as CC50 values.
4.2. Bioassay Procedures: Antileishmanial Activity on L. infantum Axenic Amastigotes
L. infantum promastigotes (MHOM/MA/67/ITMAP-263, CNR Leishmania, Montpellier, France, expressing luciferase activity) were cultivated in RPMI 1640 medium supplemented with 10% foetal calf serum (FCS), 2 mM L-glutamine and antibiotics (100 U/mL penicillin and 100 μg/mL streptomycin) and harvested in the logarithmic phase of growth by centrifugation at 900× g for 10 min. The supernatant was carefully removed and replaced by the same volume of RPMI 1640 complete medium at pH 5.4, and then incubated for 24 h at 24 °C. The acidified promastigotes were then incubated for 24 h at 37 °C in a ventilated flask to transform promastigotes into axenic amastigotes. The effects of the tested compounds on the growth of L. infantum axenic amastigotes were assessed as follows. L. infantum amastigotes were incubated at a density of 2 × 10^6 parasites/mL in sterile 96-well plates with various concentrations of compounds dissolved in DMSO (final concentration less than 0.5% v/v), in duplicate. Appropriate controls, DMSO and amphotericin, were added to each set of experiments. After a 48 h incubation period at 37 °C, each plate-well was then microscopically examined to detect any precipitate formation. To estimate the luciferase activity of axenic amastigotes, 80 μL of each well were transferred to white 96-well plates, Steady Glow® reagent (Promega, Charbonnières-les-Bains, France) was added according to the manufacturer’s instructions, and plates were incubated for 2 min. The luminescence was measured using a Microbeta Luminescence Counter (Perkin Elmer, Villebon-sur-Yvette, France). The inhibitory concentration 50% (IC50) was defined as the concentration of drug required to inhibit by 50% the metabolic activity of L. infantum amastigotes compared to control. IC50 values were calculated by non-linear regression analysis on dose response curves, using the TableCurve 2D V5 software (Systat Software, San Jose, CA, USA). IC50 values represent the mean of three independent experiments.

[2] = Cytotoxicity by MTT assay on J774A.1 macrophage cell line; format: cell-based, mouse; settings: mouse, J774A.1 macrophage cells; MTT, 72 h incubation; mean (standard deviation)
Protocol: as §1
(§2) 4.3. Cytotoxicity Evaluation on J774A.1 Cells
(§3) Evaluation of the cytotoxicity of test compounds was performed by MTT assay using the J774A.1 cell line (mouse macrophage cell line, Sigma-Aldrich). Briefly, cells (5 × 10^4 cells/mL) in 100 µL of complete medium, [DMEM High glucose supplemented with 10% fetal calf serum (FCS), 2 mM L-glutamine and antibiotics (100 U/mL penicillin and 100 µg/mL streptomycin)] were seeded into each well of 96-well plates and incubated at 37 °C in a humidified 5% CO2 with 95% air atmosphere. After a 24 h incubation, 100 µL of medium with various product concentrations and appropriate controls were added and the plates were incubated for 72 h at 37 °C. Each plate-well was then examined under the microscope to detect possible precipitate formation before the medium was aspirated from the wells. 100 µL of MTT solution (0.5 mg/mL in RPMI) was then added to each well. Cells were incubated for 2 h at 37 °C. After this time, the MTT solution was removed and DMSO (100 µL) was added to dissolve the resulting formazan crystals. Plates were shaken vigorously (300 rpm) for 5 min. The absorbance was measured at 570 nm with a microplate spectrophotometer. DMSO was used as blank and doxorubicin (Sigma Aldrich, Saint-Quentin-Fallavier, France) as positive control. CC50 values were calculated by non-linear regression analysis on dose–response curves, using the TableCurve 2D V5 software.

L. (V) panamensis = settings: read-out: EC50 against L. (V) panamensis, cited from earlier work
J774A.1 cells = experiment: Cytotoxicity by MTT assay on J774A.1 macrophage cell line; format: cell-based, mouse
Protocol: as §1, §2, §3

L. braziliensis = tested on: L. braziliensis; set-up: method as in PMID 32734890; settings: topical application, co-formulated with saponins; cited from earlier work
L. pifanoi = tested on: L. pifanoi; set-up: method as in PMID 32734890; settings: topical application, co-formulated with saponins; cited from earlier work
[3] = set-up: method as in PMID 29286346; settings: cited from earlier work
[4] = tested on: amastigotes of L. infantum; set-up: method as in PMID 29935351; settings: cited from earlier work
[5] = tested on: amastigotes of Trypanosoma cruzi; set-up: method as in PMID 29935351; settings: cited from earlier work
[6] = tested on: axenic amastigotes of L. infantum; set-up: method as in PMID 32258470; settings: cited from earlier work
[7] = tested on: intracellular amastigotes of L. infantum; set-up: method as in PMID 32258470; settings: cited from earlier work

Molecule: CC1(C)CC(=O)c2cc(CNC(=O)CCCCCCCCBr)ccc2S1 [Compound 11e, 9-Bromo-N-((2,2-dimethyl-4-oxothiochroman-6-yl)methyl)nonanamide]
- S.I. (Selectivity Index) = CC50/IC50 [1]: 8.06
- IC50 ([1]; Leishmania infantum): 7.2 µM
- activity against L. infantum (in words) [1]: notable anti-leishmanial activity
- CC50 at 72 h [2]: 58 µM

Molecule: CCCCCCCCCCNCc1ccc2c(c1)C(=O)CC(C)(C)S2 [Compound 12d, 2,2-Dimethyl-6-((decylamino)methyl)thiochroman-4-one]
- S.I. (Selectivity Index) = CC50/IC50 [1]: 1.86
- IC50 ([1]; Leishmania infantum): 12.4 µM
- CC50 at 72 h [2]: 23.1 µM

Molecule: CC1(C)CC(=O)c2cc(COC(=O)/C=C/C=C/c3ccc4c(c3)OCO4)ccc2S1 [Compound 10b, (2,2-Dimethyl-4-oxothiochroman-6-yl)methyl (2E,4E)-5-(benzo[d][1,3]dioxol-5-yl)penta-2,4-dienoate]
- S.I. (Selectivity Index) = CC50/IC50 [1]: 0.25
- IC50 ([1]; Leishmania infantum): 91.3 µM
- CC50 at 72 h [2]: 22.5 µM

Molecule: CC1(C)CC(=O)c2cc(COC(=O)C/C=C/c3ccccc3)ccc2S1 [Compound 10a, (2,2-Dimethyl-4-oxothiochroman-6-yl)methyl (E)-4-phenylbut-3-enoate]
- S.I. (Selectivity Index) = CC50/IC50 [1]: >3.97
- IC50 ([1]; Leishmania infantum): 34.4 µM
- CC50 at 72 h [2]: > 136 µM

Molecule: CCCCNCc1ccc2c(c1)C(=O)CC(C)(C)S2 [Compound 12a, 6-((Butylamino)methyl)-2,2-dimethylthiochroman-4-one]
- S.I. (Selectivity Index) = CC50/IC50 [1]: 1.25
- IC50 ([1]; Leishmania infantum): 26.5 µM
- CC50 at 72 h [2]: 33.2 µM

Molecule: CCCCCCNCc1ccc2c(c1)C(=O)CC(C)(C)S2 [Compound 12b, 6-((Hexylamino)methyl)-2,2-dimethylthiochroman-4-one]
- S.I. (Selectivity Index) = CC50/IC50 [1]: 1.12
- IC50 ([1]; Leishmania infantum): 23.1 µM
- CC50 at 72 h [2]: 25.8 µM

Molecule: O=C1C=C(c2ccc(C(F)(F)F)cc2)S(=O)(=O)c2ccc(F)cc21 [Compound 6]
- EC50 (L. (V) panamensis): < 10 µM

Molecule: (2,2-Dimethyl-4-oxothiochroman-6-yl)methyl-6-phenylhex-5-enoate [Compound 11b]
- IC50 [1]: 19.9 µM
- cytotoxicity to macrophages (in words) (J774A.1 cells; J774A.1, compared with activity against axenic amastigotes): comparably cytotoxic to macrophages
- CC50 (J774A.1 cells; MTT, 72 h incubation, mean (standard deviation)): 14 µM

Molecule: O=C(N/N=C1\CCSc2ccccc21)c1ccccc1 [Compound 8]
- effect on parasite survival and infectivity (in words) (L. braziliensis): very effective
- effect on parasite survival and infectivity (in words) (L. pifanoi): very effective

Molecule: NC(=S)N/N=C1\CC(c2ccccc2)Sc2ccccc21 (stereo not shown) [Compound 7]
- EC50 (L. (V) panamensis; acyl hydrazone derivatives): 5.1 µM
- cytotoxicity (in words) [3]: low cytotoxicity

Molecule: C[C@@H]1[C@H](O)[C@@H](C)/C=C/C=C/C=C/C=C/C=C/C=C/C=C/[C@H](O[C@@H]2O[C@H](C)[C@@H](O)[C@H](N)[C@@H]2O)C[C@@H]2O[C@](O)(C[C@@H](O)C[C@@H](O)[C@H](O)CC[C@@H](O)C[C@@H](O)CC(=O)O[C@H]1C)C[C@H](O)[C@H]2C(=O)O [Amphotericin B, reference compound]
- IC50 ([1]; Leishmania infantum): 0.072 µM

Molecule: CC1(C)CC(=O)c2cc(CNC(=O)C/C=C/c3ccccc3)ccc2S1 [Compound 11a, (E)-N-((2,2-Dimethyl-4-oxothiochroman-6-yl)methyl)-4-phenylbut-3-enamide]
- S.I. (Selectivity Index) = CC50/IC50 [1]: 3.01
- IC50 ([1]; Leishmania infantum): 10.5 µM
- activity against L. infantum (in words) [1]: notable anti-leishmanial activity
- CC50 at 72 h [2]: 31.6 µM

Molecule: CCCCCCCCNCc1ccc2c(c1)C(=O)CC(C)(C)S2 [Compound 12c, 2,2-Dimethyl-6-((octylamino)methyl)thiochroman-4-one]
- S.I. (Selectivity Index) = CC50/IC50 [1]: 1.16
- IC50 ([1]; Leishmania infantum): 19.5 µM
- CC50 at 72 h [2]: 22.6 µM

Molecule: CCCCCCCCNCc1ccc(OC)cc1 [Compound 5]
- IC50 [4]: 1.3 µM
- IC50 [5]: 5.8 µM

Molecule: COc1cccc2c1C(=O)c1c(O)c3c(c(O)c1C2=O)C[C@@](O)(C(=O)CO)C[C@@H]3O[C@H]1C[C@H](N)[C@H](O)[C@H](C)O1 [Doxorubicin, reference compound]
- CC50 at 72 h [2]: 0.047 µM

Molecule: CCCCCCCCNCc1ccc2c(c1)C(=O)CC(C)(C)[S+]2[O-] (stereo not shown) [Compound 13, 2,2-Dimethyl-6-((octylamino)methyl)thiochroman-4-one 1-oxide]
- S.I. (Selectivity Index) = CC50/IC50 [1]: 1.22
- IC50 ([1]; Leishmania infantum): 33.4 µM
- CC50 at 72 h [2]: 40.9 µM

Molecule: CCCCCCCC(=O)NCc1ccc2c(c1)C(=O)CC(C)(C)S2 [Compound 11d, N-((2,2-Dimethyl-4-oxothiochroman-6-yl)methyl)octanamide]
- S.I. (Selectivity Index) = CC50/IC50 [1]: 2.68
- IC50 ([1]; Leishmania infantum): 51.3 µM
- CC50 at 72 h [2]: 137 µM

Molecule: CCCCCCCCNCc1ccc2c(c1)C(=O)CC(C)(C)S2(=O)=O [Compound 14, 2,2-Dimethyl-6-((octylamino)methyl)thiochroman-4-one 1,1-dioxide]
- S.I. (Selectivity Index) = CC50/IC50 [1]: 1.27
- IC50 ([1]; Leishmania infantum): 33.8 µM
- CC50 at 72 h [2]: 42.8 µM

Molecule: CCCCCCCCNCc1ccc2c(c1)C(=O)CC(C)(C)O2 [Compound 3]
- IC50 [6]: 25.3 µM
- IC50 [7]: 24.6 µM

Molecule: CC1(C)CC(=O)c2cc(CNC(=O)/C=C/C=C/c3ccc4c(c3)OCO4)ccc2S1 [Compound 11c, (2E,4E)-5-(Benzo[d][1,3]dioxol-5-yl)-N-((2,2-dimethyl-4-oxothiochroman-6-yl)methyl)penta-2,4-dienamide]
- IC50 ([1]; Leishmania infantum): > 119 µM
- activity against L. infantum (in words) [1]: devoid of activity
- CC50 at 72 h [2]: > 119 µM
